Entries after “also recorded” stand apart in the source; their conditions may differ.
How the values were obtained:
[1] = tested on: HCT116 human colorectal carcinoma xenograft; test: HCT116 xenograft tumor growth delay (TGD) study; assay type: in vivo, mice
Method: Female athymic nude mice (Crl:NU(Ncr)-Foxn1^nu, Charles River) were eight weeks old with a body weight (BW) range of 14.6 to 25.7 grams on Day 1 of the study. The animals were fed ad libitum water (reverse osmosis, 1 ppm Cl), and NIH 31 Modified and Irradiated Lab Diet® consisting of 18.0% crude protein, 5.0% crude fat, and 5.0% crude fiber. The mice were housed on irradiated Enrich-O'Cobs™ Laboratory Animal Bedding in static microisolators on a 12-hour light cycle at 20-22° C. (68-72° F.) and 40-60% humidity.
HCT116 human colon carcinoma cells were cultured in RPMI-1640 medium supplemented with 10% fetal bovine serum, 2 mM glutamine, 100 units/mL penicillin G sodium, 100 μg/mL streptomycin sulfate, and 25 μg/mL gentamicin. The tumor cells were grown in tissue culture flasks in a humidified incubator at 37° C., in an atmosphere of 5% CO2 and 95% air.
The HCT116 cells used for implantation were harvested during exponential growth and resuspended in 50% Matrigel (BD Biosciences): 50% phosphate buffered saline at a concentration of 2.5×10^7 cells/mL. On the day of tumor implant, each test mouse was injected subcutaneously in the right flank with 5×10^6 cells (0.2 mL cell suspension), and tumor growth was monitored as the average size approached the target range of 100 to 150 mm^3. Tumors were measured in two dimensions using calipers, and volume was calculated using the formula: Tumor Volume (mm^3)=(w^2×l)/2 where w=width and l=length, in mm, of the tumor. Tumor weight may be estimated with the assumption that 1 mg is equivalent to 1 mm^3 of tumor volume.
Ten days after tumor implantation, designated as Day 1 of the study, the animals were sorted into nine groups (Groups 1-9) each consisting of fifteen mice and one group (Group 10) consisting of ten mice.
BVD-523 doses were prepared by suspending the required amount of BVD-523 powder in 1% carboxymethyl cellulose (CMC) in deionized water (“Vehicle”). A 10 mg/mL BVD-523 stock was prepared, and was used to dose the 100 mg/kg BVD-523 group. Aliquots of the stock were diluted with the vehicle to a concentration of 5.0 mg/mL, which provided a 50 mg/kg BVD-523 dosage in a dosing volume of 10 mL/kg. The BVD-523 doses were stored at 4° C. for up to one week. The 1% CMC vehicle was used to dose the control group.
Paclitaxel (Lot CP2N10007) was purchased as a dry powder from Phyton Biotech, LLC (Fort Worth, Tex.). A paclitaxel stock solution (30 mg/mL) in 50% ethanol: 50% Cremophor EL was prepared and stored at room temperature protected from light during the dosing period. On each day of dosing, an aliquot of the paclitaxel stock was diluted with 5% dextrose in water (D5W) to yield a 3.0 mg/mL paclitaxel dosing solution in a vehicle consisting of 5% ethanol: 5% Cremophor EL: 90% D5W.
On Day 1 of the study, mice were sorted into nine groups (Group 1-9) each consisting of fifteen mice and one group (Group 10) consisting of ten mice, and dosing was initiated according to the treatment plan summarized in Table 4 below. All doses were given by oral gavage (p.o.) except paclitaxel, which was given i.v. For each agent, the dosing volume of 10 mL/kg (0.2 mL per 20 grams of BW) was scaled to the BW of the individual animal. […] For bid dosing, dosing was initiated in the afternoon of Day 1, so that one dose was given on the first day (“first day 1 dose”).
Group 1 received 1% CMC vehicle p.o. bid to end, and served as the control group for calculation of % TGD. Group 10 received paclitaxel i.v. at 30 mg/kg once every other day (qod) for five doses (qod×5), and served as the positive control for the model.
Groups 4 and 5 received 50 and 100 mg/kg BVD-523, respectively, p.o. bid to end.

[2] = Toxicity (body weight, deaths, clinical signs) in the HCT116 xenograft study; assay type: in vivo, mice; details: for Deaths NTR / Deaths TR: po, 45 days
Method: Animals were weighed daily on Days 1-5, then twice per week until completion of the study. The mice were observed frequently for overt signs of any adverse, TR side effects, and clinical signs were recorded when observed. Individual BW loss was monitored as per protocol, and any animal whose weight exceeded the limits for acceptable BW loss was euthanized. Group mean BW loss also was monitored as per protocol. Dosing was to be suspended in any group that exceeded the limits for acceptable mean BW loss. If mean BW recovered, then dosing was to be resumed in that group, but at a lower dosage or less frequent dosing schedule. Acceptable toxicity for the maximum tolerated dose (MTD) was defined as a group mean BW loss of less than 20% during the study and not more than 10% TR deaths. A death was classified as TR if attributable to treatment side effects as evidenced by clinical signs and/or necropsy, or may also be classified as TR if due to unknown causes during the dosing period or within 14 days of the last dose. A death was classified as NTR if there was no evidence that death was related to treatment side effects. NTR deaths may be further characterized based on cause of death. A death was classified as NTRa if it resulted from an accident or human error. […] A death was classified as NTRu if the cause of death was unknown and there was no available evidence of death related to treatment side effects, metastasis, accident or human error, although death due to treatment side effects cannot be excluded.

[3] = Group 1 (vehicle) vs Group 4 (BVD-523 50 mg/kg po bid to end)
[4] = Group 4: BVD-523 50 mg/kg po bid to end
[5] = Group 5: BVD-523 100 mg/kg po bid to end

SMILES: CC(C)Nc1cc(-c2c[nH]c(C(=O)N[C@H](CO)c3cccc(Cl)c3)c2)c(Cl)cn1 [BVD-523]
- Overall activity in the HCT116 xenograft model ([1]; BVD-523 50 mg/kg p.o. bid to end): active
- Are survival curves diff.? [1, 3]: Yes
- Hazard Ratio [1, 3]: 4.813
- Logrank test Chi square [1, 3]: 21.86
- Median survival Ratio (Column A/Column B) [1, 3]: 0.7517
- % TGD [1, 4]: 33%
- MTV (n): number of animals on D 45 (45-day survivors) [1, 4]: (5)
- MTV D 45 (median tumor volume) [1, 4]: 1666 mm^3
- Median TTE [1, 4]: 43.5 days
- Regressions CR [1, 4]: 0
- Regressions PR [1, 4]: 0
- Regressions TFS [1, 4]: 0
- T − C [1, 4]: 10.8 days
- % TGD [1, 5]: 38%
- MTV (n): number of animals on D 45 (45-day survivors) [1, 5]: (11)
- MTV D 45 (median tumor volume) [1, 5]: 405 mm^3
- Median TTE [1, 5]: 45.0 days
- Regressions CR [1, 5]: 0
- Regressions PR [1, 5]: 0
- Regressions TFS [1, 5]: 0
- T − C [1, 5]: 12.3 days
- Tolerability relative to the MTD ([2]; Group 5: BVD-523 100 mg/kg p.o. bid to end, 100 mg/kg): above the MTD; also recorded: above the maximum tolerated dose
- Adverse clinical signs ([2]; mouse, in vivo, 50 mg/kg): no noteworthy adverse clinical signs
- Deaths NTR ([2]; mouse, in vivo, 50 mg/kg): 0
- Deaths TR ([2]; mouse, in vivo, 50 mg/kg): 0
- Deaths NTR ([2]; mouse, in vivo, 100 mg/kg): 0
- Deaths TR ([2]; mouse, in vivo, 100 mg/kg): 4
